{"source": "the supplement of paper PMC10307832", "assay_in_all_cases": "relative viability (nuclei count vs DMSO), 5 days (fraction); higher = more cells survive", "key": {"[1]": {"compound": "C1=CC=C(C(=C1)C2=CC=C(C=C2)C3=CSC4=C3C(=C(C(=O)N4)C#N)O)O + Cc1nc(Nc2ncc(C(=O)Nc3c(C)cccc3Cl)s2)cc(N2CCN(CCO)CC2)n1 [Dasatinib] (partner 0.075 µM)", "summary_of_the_method": "(§1)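 A single step with final 0.05% Triton X-100, 1% formaldehyde and 1 ug/ml Hoechst fixed the cells and stained nuclei 5 days after treatment. Lung cancer cell lines in 1536-well plates had been treated by pin tool the day after seeding with one drug alone or a fixed anchor-drug dose plus five library-drug doses (not always all listed) in √10 steps, and nuclei were counted on 4× images. Relative viability is the ratio of nuclei in treated wells to nuclei in vehicle wells, taken as the median of duplicate plates.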"}, "TGX 221 + Pictilisib": {"compound": "CC1=CN2C(=O)C=C(N=C2C(=C1)C(C)NC3=CC=CC=C3)N4CCOCC4 [TGX 221] + CS(=O)(=O)N1CCN(Cc2cc3nc(-c4cccc5[nH]ncc45)nc(N4CCOCC4)c3s2)CC1 [Pictilisib] (partner 1 µM)", "summary_of_the_method": "as §1"}, "TGX 221 + Dasatinib": {"compound": "CC1=CN2C(=O)C=C(N=C2C(=C1)C(C)NC3=CC=CC=C3)N4CCOCC4 [TGX 221] + Cc1nc(Nc2ncc(C(=O)Nc3c(C)cccc3Cl)s2)cc(N2CCN(CCO)CC2)n1 [Dasatinib] (partner 0.075 µM)", "summary_of_the_method": "as §1"}, "TGX 221 + AZD7762": {"compound": "CC1=CN2C(=O)C=C(N=C2C(=C1)C(C)NC3=CC=CC=C3)N4CCOCC4 [TGX 221] + NC(=O)Nc1cc(-c2cccc(F)c2)sc1C(=O)N[C@H]1CCCNC1 [AZD7762] (partner 0.2 µM)", "summary_of_the_method": "as §1"}}}
{"cell line": "NCI-H1915", "values": [{"measurement": "relative viability", "setting": "[1]; first compound 0.08 µM", "value": 0.335}, {"measurement": "relative viability", "setting": "[1]; first compound 0.253 µM", "value": 0.344}, {"measurement": "relative viability", "setting": "[1]; first compound 2.53 µM", "value": 0.314}, {"measurement": "relative viability", "setting": "[1]; first compound 8 µM", "value": 0.34}, {"measurement": "relative viability", "setting": "TGX 221 + Pictilisib; first compound 0.08 µM", "value": 0.892}, {"measurement": "relative viability", "setting": "TGX 221 + Pictilisib; first compound 0.253 µM", "value": 0.895}, {"measurement": "relative viability", "setting": "TGX 221 + Pictilisib; first compound 0.8 µM", "value": 1}, {"measurement": "relative viability", "setting": "TGX 221 + Pictilisib; first compound 2.53 µM", "value": 0.805}, {"measurement": "relative viability", "setting": "TGX 221 + Pictilisib; first compound 8 µM", "value": 0.949}, {"measurement": "relative viability", "setting": "TGX 221 + Dasatinib; first compound 0.08 µM", "value": 0.257}, {"measurement": "relative viability", "setting": "TGX 221 + Dasatinib; first compound 0.253 µM", "value": 0.303}, {"measurement": "relative viability", "setting": "TGX 221 + Dasatinib; first compound 0.8 µM", "value": 0.304}, {"measurement": "relative viability", "setting": "TGX 221 + Dasatinib; first compound 2.53 µM", "value": 0.302}, {"measurement": "relative viability", "setting": "TGX 221 + Dasatinib; first compound 8 µM", "value": 0.314}, {"measurement": "relative viability", "setting": "TGX 221 + AZD7762; first compound 0.08 µM", "value": 0.655}, {"measurement": "relative viability", "setting": "TGX 221 + AZD7762; first compound 0.253 µM", "value": 0.665}, {"measurement": "relative viability", "setting": "TGX 221 + AZD7762; first compound 0.8 µM", "value": 0.665}, {"measurement": "relative viability", "setting": "TGX 221 + AZD7762; first compound 2.53 µM", "value": 0.596}, {"measurement": "relative viability", "setting": "TGX 221 + AZD7762; first compound 8 µM", "value": 0.712}]}
{"cell line": "NCI-H441", "values": [{"measurement": "relative viability", "setting": "[1]; first compound 0.08 µM", "value": 0.437}, {"measurement": "relative viability", "setting": "[1]; first compound 0.253 µM", "value": 0.626}, {"measurement": "relative viability", "setting": "[1]; first compound 0.8 µM", "value": 0.582}, {"measurement": "relative viability", "setting": "[1]; first compound 2.53 µM", "value": 0.636}, {"measurement": "relative viability", "setting": "[1]; first compound 8 µM", "value": 0.538}, {"measurement": "relative viability", "setting": "TGX 221 + Pictilisib; first compound 0.08 µM", "value": 0.486}, {"measurement": "relative viability", "setting": "TGX 221 + Pictilisib; first compound 0.253 µM", "value": 0.447}, {"measurement": "relative viability", "setting": "TGX 221 + Pictilisib; first compound 0.8 µM", "value": 0.456}, {"measurement": "relative viability", "setting": "TGX 221 + Pictilisib; first compound 2.53 µM", "value": 0.511}, {"measurement": "relative viability", "setting": "TGX 221 + Pictilisib; first compound 8 µM", "value": 0.508}, {"measurement": "relative viability", "setting": "TGX 221 + Dasatinib; first compound 0.08 µM", "value": 0.534}, {"measurement": "relative viability", "setting": "TGX 221 + Dasatinib; first compound 0.253 µM", "value": 0.597}, {"measurement": "relative viability", "setting": "TGX 221 + Dasatinib; first compound 0.8 µM", "value": 0.59}, {"measurement": "relative viability", "setting": "TGX 221 + Dasatinib; first compound 2.53 µM", "value": 0.609}, {"measurement": "relative viability", "setting": "TGX 221 + Dasatinib; first compound 8 µM", "value": 0.661}, {"measurement": "relative viability", "setting": "TGX 221 + AZD7762; first compound 0.08 µM", "value": 1.22}, {"measurement": "relative viability", "setting": "TGX 221 + AZD7762; first compound 0.253 µM", "value": 1.12}, {"measurement": "relative viability", "setting": "TGX 221 + AZD7762; first compound 0.8 µM", "value": 0.925}, {"measurement": "relative viability", "setting": "TGX 221 + AZD7762; first compound 2.53 µM", "value": 1.07}, {"measurement": "relative viability", "setting": "TGX 221 + AZD7762; first compound 8 µM", "value": 1.24}]}
{"cell line": "PC-3 [JPC-3]", "values": [{"measurement": "relative viability", "setting": "[1]; first compound 0.08 µM", "value": 0.818}, {"measurement": "relative viability", "setting": "[1]; first compound 0.253 µM", "value": 0.731}, {"measurement": "relative viability", "setting": "[1]; first compound 0.8 µM", "value": 0.913}, {"measurement": "relative viability", "setting": "[1]; first compound 2.53 µM", "value": 1.11}, {"measurement": "relative viability", "setting": "[1]; first compound 8 µM", "value": 0.953}, {"measurement": "relative viability", "setting": "TGX 221 + Pictilisib; first compound 0.08 µM", "value": 0.642}, {"measurement": "relative viability", "setting": "TGX 221 + Pictilisib; first compound 0.253 µM", "value": 0.73}, {"measurement": "relative viability", "setting": "TGX 221 + Pictilisib; first compound 0.8 µM", "value": 0.772}, {"measurement": "relative viability", "setting": "TGX 221 + Pictilisib; first compound 2.53 µM", "value": 0.748}, {"measurement": "relative viability", "setting": "TGX 221 + Pictilisib; first compound 8 µM", "value": 0.754}, {"measurement": "relative viability", "setting": "TGX 221 + Dasatinib; first compound 0.08 µM", "value": 0.893}, {"measurement": "relative viability", "setting": "TGX 221 + Dasatinib; first compound 0.253 µM", "value": 0.934}, {"measurement": "relative viability", "setting": "TGX 221 + Dasatinib; first compound 0.8 µM", "value": 1.02}, {"measurement": "relative viability", "setting": "TGX 221 + Dasatinib; first compound 2.53 µM", "value": 0.93}, {"measurement": "relative viability", "setting": "TGX 221 + Dasatinib; first compound 8 µM", "value": 0.925}, {"measurement": "relative viability", "setting": "TGX 221 + AZD7762; first compound 0.08 µM", "value": 0.689}, {"measurement": "relative viability", "setting": "TGX 221 + AZD7762; first compound 0.253 µM", "value": 0.72}, {"measurement": "relative viability", "setting": "TGX 221 + AZD7762; first compound 0.8 µM", "value": 0.817}, {"measurement": "relative viability", "setting": "TGX 221 + AZD7762; first compound 2.53 µM", "value": 0.755}, {"measurement": "relative viability", "setting": "TGX 221 + AZD7762; first compound 8 µM", "value": 0.758}]}
